Where only a bound is given, the exact number is not on record here.

Data on eight molecules can be found in patent US9486430B2, “Treatment of neurodegenerative disease” (priority 2010, dated 2016).

The conditions of data set [1]: carbidopa with levodopa; cited from earlier work.
The test system of the next data set is healthy volunteers. As to conditions: cited from earlier work; for adverse effects in healthy volunteers: up to 5 g (5000 mg per day).
Data set [2] concerns patient with Parkinson's Disease. As to the kind of experiment: Tolerability of other drugs and supplements in the Parkinson's Disease patient. An excerpt:
Patients on the anticoagulant warfarin are expected to have a reading between 2 and 3, with three being the least coagulated.

Data set [3] is described as follows: International Normalized Ratio (INR) anticoagulation test in the Parkinson's Disease patient. Format: in vivo, human. The settings on record: for INR: ref. range 0.8-1.2. An excerpt:
(§1) As described in detail below, the parameters used to measure these findings were basic observations of speech, gait, overall function and tremor before and after administering t-RES over a period of months using the author's Tremor Rating Scale (TRS) in addition to the UPDRS (Fahn, et al., Recent Developments in Parkinson's Disease, 1989). […] The International Normalized Ratio is a measure of clotting speed in the blood used especially as an indicator of Warfarin levels in the blood in patients with Atrial Fibrillation who need reduced clotting probability, to prevent strokes and pulmonary embolisms—but not so reduced as to increase the chances of hemorrhage, especially from trauma. The INR in a normal person ranges from 0.8 to 1.2 in an A-Fib patient the INR should be maintained between 2.0 and 3.0 (Avery, et al., Clin. Pharmacol. Ther., 2011).

Data set [4] is described as follows: Kidney function test in the Parkinson's Disease patient. Format: in vivo, human. The settings on record: patient on t-RES; data not shown.
Data set [5] concerns patient with stage four idiopathic Parkinson's Disease. As to the kind of experiment: Observation of a stage four Parkinson's Disease patient on t-RES with SINEMET (Tremor Rating Scale, UPDRS). Format: in vivo, human.
Excerpt: as §1
In a particular embodiment, the effect of t-RES on a patient with stage four idiopathic Parkinson's Disease was observed. The patient was followed closely for fourteen months while receiving t-RES. t-RES was administered daily and changes in speech, handwriting, gait, leg movement, and dyskinesias were observed. […] Handwriting samples were taken before and after taking t-RES.
Starting dose of ½ pill 3 times/day SINEMET® 25/100 and 4 pills/day SINEMET® CR 25/100. Doses were given every four hours starting at 7 am.
Eleven months into the study, patient was taking 500 mg t-RES/day, considered the lowest mega-dose, plus the added 100 mg general polyphenols which are mixed into each 125 mg t-RES capsule.
This was achieved using a scale devised by the inventor, with three states: tremor, no dyskinesia (T, ND=0); non-tremor, no dyskinesia (NT, ND=1); and dyskinesia, no tremor (D, NT=2). The patient's state was recorded every half hour from 7 am to 10 pm by the author and caregivers on all days practicable.
Daily numbers from the inventor's 0-2 Tremor Rating Scale (TRS) scale were then tallied and entered into the Unified Parkinson's Disease Rating Scale (UPDRS) for comparison.
The doses of t-RES, SINEMET® and other supplements were also noted, with adjustments being made as necessary. The results were then examined for overall changes observed when the t-RES dose was increased every few months as shown in FIG. 2.

The test system of data set [6] is monoamine oxidase A (MAO-A), MAO-B. The settings on record: rat brain; cited from earlier work.
Data set [7] concerns amyloid plaques in mouse brain. As to conditions: dietary supplementation, transgenic model of Alzheimer's Disease; cited from earlier work.
For data set [8] the following is noted: mice; cited from earlier work.
The test system of a further data set is patients. As to conditions: some patients; cited from earlier work.

For the molecule `C[C@@](Cc1ccc(O)c(O)c1)(NN)C(=O)O` [Carbidopa, carbidopa], in data set [1], the “reduction of the amount of levodopa required to produce a given response” value is reported as “about 75%”.
As for `Oc1ccc(C=Cc2cc(O)cc(O)c2)cc1` [resveratrol, 3,5,4′-trihydroxy-stilbene], the reported adverse events entry in the data set with healthy volunteers (2000 mg twice daily, two-week study, eight healthy adults) is listed as “minor diarrhea”. Besides, the “adverse effects in healthy volunteers” value in the data set with healthy volunteers is “no adverse effects”.
Take `C#CCN(C)[C@H](C)Cc1ccccc1` [selegiline]: in [2] (therapy in conjunction with SINEMET), the “tolerability in the patient” value is on record as “neither was tolerated”.
Take `Oc1ccc(/C=C/c2cc(O)cc(O)c2)cc1` [t-RES, 3,5,4′-trihydroxy-trans-stilbene]: the INR in [3] (250 mg t-Res + 81 mg/day aspirin, Oct. 26, 2010) came to 1; in data set [3] (500 mg t-Res, Mar. 14, 2011) it was 1.0; in data set [3] (625 mg t-Res, Jul. 6, 2011), 1.0. The “INR score (blood coagulation)” value in data set [3] (500 mg followed by 625 mg t-RES, eight and 12 months into the study, normal range 0.8-1.2) was 1. The Kidney function entry in data set [4] was “within the normal range”. Further, in data set [5] (14 months post t-RES (625 mg/day), September 2011, 550 mg before t-RES), the “Total Levodopa per day” value is reported as “day = 500 mg max”. In data set [5] (UPDRS ratings, t-RES plus SINEMET, FIG. 2, rarely over), the “tremors and dyskinesias, share of the day” value was ≤ 25 % of the day. Also, the “patient's "on" time, share of the day” value in [5] (UPDRS-based, t-RES plus SINEMET, FIG. 2) is recorded as 75 % of the day. For the same molecule, in [5] (each increase of t-RES by 125 mg/day, with SINEMET, FIG. 2, FIG. 3), the “dyskinesias on t-RES dose increase” value was “dyskinesias increased”. Further, in data set [5] (first few days of t-RES, from 1½ tablets per day (150 mg levodopa) to one tablet per day), the “need for SINEMET per day after starting t-RES” value worked out at 100 mg levodopa. Moreover, the cognition and speech entry in data set [5] (following first administration of t-RES (125 mg capsule)) was “overnight improvement in cognition and speech”. Further, in data set [5] (soon after beginning t-RES), the hallucinations entry is listed as “completely eliminated on most days”. Further, the “adverse effects in healthy volunteers” value in the data set with healthy volunteers is “no adverse effects”. Besides, the “inhibition of MAO-A compared with MAO-B” value in data set [6] is listed as “slightly more than MAO-B”. Moreover, the “amyloid plaques in mouse brain” value in data set [7] is on record as “reduce the number of amyloid plaques”.
For `C#CCN[C@@H]1CCc2ccccc21` [rasagiline], the “tolerability in the patient” value in data set [2] (human, in vivo) is given as “neither was tolerated”.
Regarding `Cc1ccc(NC(=O)c2ccc(CN3CCN(C)CC3)cc2)cc1Nc1nccc(-c2cccnc2)n1` [imatinib], the “crossing of the blood-brain barrier” value in data set [8] is “not able to cross the blood-brain barrier”.
Consider `N[C@@H](CCC(=O)N[C@@H](CS)C(=O)NCC(=O)O)C(=O)O` [glutathione], for which the “symptoms on reducing glutathione” value in data set [5] (glutathione reduced while on t-RES and SINEMET) is on record as “worsening of symptoms”.
Consider `C#CCN(C)[C@H](C)Cc1ccccc1` [deprenyl], for which the extension of lifespan result in the data set with patients is “up to 10 years”.
